Data from publication PMC3911823 (The FEBS journal, 2011).

Target: T1, P450 2B4 H172F (Oryctolagus cuniculus, UniProt P00178, H172F)
T1 sequence (P00178 with tags, fused parts or gaps H172F limits assumed): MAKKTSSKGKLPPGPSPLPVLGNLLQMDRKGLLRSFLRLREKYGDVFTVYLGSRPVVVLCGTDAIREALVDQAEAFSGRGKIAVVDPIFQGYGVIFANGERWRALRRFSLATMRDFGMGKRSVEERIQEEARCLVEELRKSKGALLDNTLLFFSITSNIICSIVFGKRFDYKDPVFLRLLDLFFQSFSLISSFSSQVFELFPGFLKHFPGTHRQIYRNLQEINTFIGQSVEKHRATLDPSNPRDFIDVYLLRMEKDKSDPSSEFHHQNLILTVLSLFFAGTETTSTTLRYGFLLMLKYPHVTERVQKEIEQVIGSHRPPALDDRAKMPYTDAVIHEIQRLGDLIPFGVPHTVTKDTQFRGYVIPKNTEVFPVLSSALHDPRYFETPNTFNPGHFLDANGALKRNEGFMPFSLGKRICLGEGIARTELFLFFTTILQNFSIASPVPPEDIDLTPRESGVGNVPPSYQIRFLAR

kcat: 0 s⁻¹
kcat/S50: 0
substrate turnover (activity): inactive
SMILES: O=c1ccc2nc3ccc(OCc4ccccc4)cc3oc-2c1 [7-BR, 7-benzyloxyresorufin]
